Measurements taken from US7626044B2, “Triptolide derivatives and their uses” (priority 2002, dated 2009).
Read-outs that look alike come from different tables or passages of the source.

What was measured:
[1] = system: HO-8910 (human ovary cancer cells); assay: Tumor cell proliferation, HO-8910; assay type: cell-based; details: read-out: Inhibitory effect on tumor cell proliferation IC50
[2] = system: anti-SRBC specific antibodies production by B lymphocytes; assay type: in vivo, mouse; details: ICR mice
[3] = system: collagen-induced arthritis; assay: Collagen-induced arthritis in DBA/1 mice; assay type: in vivo, mouse
[4] = system: DNFB-induced mouse DTH response; assay: DNFB-induced mouse delayed type hypersensitivity response (DTH); assay type: in vivo
Method: Female Balb/c mice (age of 6-8 wk) were randomly divided into groups and immunized with 20 μl 0.5% DNFB solution in absolute acetone-olive oil (4:1) on each hind foot on day 0 and 1;
7-9 days after the initial immunization, mice were boosted with 10 μl 0.4% DNFB on both sides of the left ear, whereas the right ear was treated with vehicle alone;
Compounds were administered intraperitoneally (i.p.) or orally (p.o.) to the mice 1 h before DNFB booster immunization and 12 h later.
Ear swelling and other indexes were assessed 24-48 h after booster immunization.
Note: Female ICR mice (age of 6-8 wk) were immunized with 0.7% DNFB solution and boosted with 0.6% DNFB solution.

[5] = Table 5, i.p., dosage 1 mg/kg/d for 5 days, control 20

## CC(C)[C@]12O[C@H]1[C@@H]1O[C@]13[C@]1(O[C@H]1C[C@@]1(O)C4=C(CC[C@]31C)C(=O)OC4)[C@@H]2O [LLDT-8, (5R)-5-hydroxytriptolide]
[1]
  IC50: 220 nM
[2]; Table 11, i.p. 4 times, dosage 0.04 mg/kg, control 0.208
  QHS OD value: 0.175
[2]; Table 11, i.p. 4 times, dosage 0.04 mg/kg, control 16.8
  C3: 19.5 μg/10 μl
[2]; Table 11, i.p. 4 times, dosage 0.04 mg/kg, control 23.5
  Body weight: 23.0 g
[2]; Table 11, i.p. 4 times, dosage 0.04 mg/kg, control 39.6
  Thymus: 32.1 mg
[2]; Table 11, i.p. 4 times, dosage 0.04 mg/kg, control 66.4
  Spleen: 74.8 mg/10 g
[2]; Table 11, i.p. 4 times, dosage 0.04 mg/kg, control 185.5
  Total IgG: 176.6 μg/10 μl
[2]; Table 11, i.p. 4 times, dosage 0.2 mg/kg, control 0.208
  QHS OD value: 0.162
[2]; Table 11, i.p. 4 times, dosage 0.2 mg/kg, control 16.8
  C3: 19.7 μg/10 μl
[2]; Table 11, i.p. 4 times, dosage 0.2 mg/kg, control 23.5
  Body weight: 23.1 g
[2]; Table 11, i.p. 4 times, dosage 0.2 mg/kg, control 39.6
  Thymus: 36.9 mg
[2]; Table 11, i.p. 4 times, dosage 0.2 mg/kg, control 66.4
  Spleen: 76.3 mg/10 g
[2]; Table 11, i.p. 4 times, dosage 0.2 mg/kg, control 185.5
  Total IgG: 165.9 μg/10 μl
[2]; Table 11, i.p. 4 times, dosage 1 mg/kg, control 0.208
  QHS OD value: 0.158
[2]; Table 11, i.p. 4 times, dosage 1 mg/kg, control 16.8
  C3: 19.4 μg/10 μl
[2]; Table 11, i.p. 4 times, dosage 1 mg/kg, control 23.5
  Body weight: 22.3 g
[2]; Table 11, i.p. 4 times, dosage 1 mg/kg, control 39.6
  Thymus: 36.6 mg
[2]; Table 11, i.p. 4 times, dosage 1 mg/kg, control 66.4
  Spleen: 59.6 mg/10 g
[2]; Table 11, i.p. 4 times, dosage 1 mg/kg, control 185.5
  Total IgG: 182.9 μg/10 μl
[2]; Table 12, p.o. 4 times, dosage 0.04 mg/kg, control 0.38
  QHS OD value: 0.23
[2]; Table 12, p.o. 4 times, dosage 0.04 mg/kg, control 7.9
  C3: 6.7 μg/10 μl
[2]; Table 12, p.o. 4 times, dosage 0.04 mg/kg, control 23.4
  Body weight: 23.0 g
[2]; Table 12, p.o. 4 times, dosage 0.04 mg/kg, control 28.8
  Thymus: 28.7 mg
[2]; Table 12, p.o. 4 times, dosage 0.04 mg/kg, control 55.7
  Spleen: 69.0 mg/10 g
[2]; Table 12, p.o. 4 times, dosage 0.04 mg/kg, control 117
  Total IgG: 123 μg/10 μl
[2]; Table 12, p.o. 4 times, dosage 0.2 mg/kg, control 0.38
  QHS OD value: 0.34
[2]; Table 12, p.o. 4 times, dosage 0.2 mg/kg, control 7.9
  C3: 7.9 μg/10 μl
[2]; Table 12, p.o. 4 times, dosage 0.2 mg/kg, control 23.4
  Body weight: 24.0 g
[2]; Table 12, p.o. 4 times, dosage 0.2 mg/kg, control 28.8
  Thymus: 36.6 mg
[2]; Table 12, p.o. 4 times, dosage 0.2 mg/kg, control 55.7
  Spleen: 61.6 mg/10 g
[2]; Table 12, p.o. 4 times, dosage 0.2 mg/kg, control 117
  Total IgG: 116 μg/10 μl
[2]; Table 12, p.o. 4 times, dosage 1 mg/kg, control 0.38
  QHS OD value: 0.24
[2]; Table 12, p.o. 4 times, dosage 1 mg/kg, control 7.9
  C3: 6.8 μg/10 μl
[2]; Table 12, p.o. 4 times, dosage 1 mg/kg, control 23.4
  Body weight: 23.0 g
[2]; Table 12, p.o. 4 times, dosage 1 mg/kg, control 28.8
  Thymus: 32.5 mg
[2]; Table 12, p.o. 4 times, dosage 1 mg/kg, control 55.7
  Spleen: 63.7 mg/10 g
[2]; Table 12, p.o. 4 times, dosage 1 mg/kg, control 117
  Total IgG: 118 μg/10 μl
[3]; 0.2 and 0.04 mg/Kg/d, dose-dependent
  suppressive effect on CIA at lower doses: Suppressive effect was also observed
[3]; compared with untreated CIA mice
  Anti-collagen specific antibody levels: reduced dose-dependently
[3]; i.p. 1 mg/Kg/d, compared with untreated CIA mice
  severity and incidence of CIA: effectively reduced severity and incidence of CIA
[4]; [5]
  Body weight after i.p.: 21/21 g
  Body weight before i.p.: 21/21 g
[4]; Table 5, i.p., dosage 1 mg/kg/d for 5 days, control 31.2
  Right ear: 35.5 mg
[4]; Table 5, i.p., dosage 1 mg/kg/d for 5 days, control 32.6
  Ear swelling: 21.4 mg
[4]; Table 5, i.p., dosage 1 mg/kg/d for 5 days, control 63.8
  Left ear: 56.9 mg
[4]; Table 5, i.p., dosage 1 mg/kg/d for 5 days, control 142.4
  Spleen: 140.3 mg
[4]; Table 6, i.p. once a day for 2 days, ICR mice, dosage 0.04 mg/kg, control 30.0
  Right ear: 29.4 mg
[4]; Table 6, i.p. once a day for 2 days, ICR mice, dosage 0.04 mg/kg, control 31.1
  Ear swelling: 26.1 mg
[4]; Table 6, i.p. once a day for 2 days, ICR mice, dosage 0.04 mg/kg, control 61.1
  Left ear: 55.5 mg
[4]; Table 6, i.p. once a day for 2 days, ICR mice, dosage 0.2 mg/kg, control 30.0
  Right ear: 37.4 mg
[4]; Table 6, i.p. once a day for 2 days, ICR mice, dosage 0.2 mg/kg, control 31.1
  Ear swelling: 17.9 mg
[4]; Table 6, i.p. once a day for 2 days, ICR mice, dosage 0.2 mg/kg, control 61.1
  Left ear: 55.3 mg
